The values below come from US10695337B2, “Piperidin-4-yl azetidine derivatives as JAK1 inhibitors” (Incyte Corporation, priority 2010, dated 2020).

This assay has as its target human JAK1 (a.a. 837-1142). The assay can be described thus: In vitro JAK kinase assay (HTRF, phosphorylation of a biotinylated peptide), JAK1. The format is biochemical. The following applies: measured at 1 mM ATP; JAK2 IC50 / JAK1 IC50. The method, boiled down:
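Phosphorylation of a biotinylated peptide by purified His-tagged JAK catalytic domains (insect-cell baculovirus expression) ran 1 hr at room temperature. After stopping with EDTA, Eu-Py20 and SA-APC were bound for 40 minutes and HTRF measured.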
A general note: Time-resolved FRET reads energy transfer from a long-lived donor to a nearby acceptor.
Regarding `N#CCC1(n2cc(-c3ncnc4[nH]ccc34)cn2)CN(C2CCN(C(=O)c3ccc(-c4ccccc4)cc3)CC2)C1` [Example 114, {1-[1-(biphenyl-4-ylcarbonyl)piperidin-4-yl]-3-[4-(7H-pyrrolo[2,3-d]pyrimidin-4-yl)-1H-pyrazol-1-yl]azetidin-3-yl}acetonitrile], the “IC50 Ratio JAK2/JAK1” value was determined as 1.5.

As for `N#CCC1(n2cc(-c3ncnc4[nH]ccc34)cn2)CN(C2CCN(C(=O)c3ccc(-c4ccncc4)c(F)c3)CC2)C1` [Example 117, {1-[1-(3-fluoro-4-pyridin-4-ylbenzoyl)piperidin-4-yl]-3-[4-(7H-pyrrolo[2,3-d]pyrimidin-4-yl)-1H-pyrazol-1-yl]azetidin-3-yl} acetonitrile], the “IC50 Ratio JAK2/JAK1” value was determined as 10.0.

For the compound `N#CCC1(n2cc(-c3ncnc4[nH]ccc34)cn2)CN(C2CCN(C(=O)c3ccc(-c4ccc(C#N)c(F)c4)c(F)c3)CC2)C1` [Example 119, 4′-[(4-{3-(cyanomethyl)-3-[4-(7H-pyrrolo[2,3-d]pyrimidin-4-yl)-1H-pyrazol-1-yl]azetidin-1-yl}piperidin-1-yl)carbonyl]-2′,3-difluorobiphenyl-4-carbonitrile], the “IC50 Ratio JAK2/JAK1” value is listed as 14.0.

With `N#CCC1(n2cc(-c3ncnc4[nH]ccc34)cn2)CN(C2CCN(C(=O)c3ccc(-c4cccnc4)c(F)c3)CC2)C1` [Example 123, {1-[1-(3-fluoro-4-pyridin-3-ylbenzoyl)piperidin-4-yl]-3-[4-(7H-pyrrolo[2,3-d]pyrimidin-4-yl)-1H-pyrazol-1-yl]azetidin-3-yl} acetonitrile], the “IC50 Ratio JAK2/JAK1” value is listed as 3.8.

`N#CCC1(n2cc(-c3ncnc4[nH]ccc34)cn2)CN(C2CCN(C(=O)c3ccc(-c4ccccc4C#N)c(F)c3)CC2)C1` [Example 124, 4′-[(4-{3-(cyanomethyl)-3-[4-(7H-pyrrolo[2,3-d]pyrimidin-4-yl)-1H-pyrazol-1-yl]azetidin-1-yl}piperidin-1-yl)carbonyl]-2′-fluorobiphenyl-2-carbonitrile]: the “IC50 Ratio JAK2/JAK1” value was found to be 8.4. To `N#CCC1(n2cc(-c3ncnc4[nH]ccc34)cn2)CN(C2CCN(C(=O)c3ccc(-c4cccc(C#N)c4)c(F)c3)CC2)C1` [Example 125, 4′-[(4-{3-(cyanomethyl)-3-[4-(7H-pyrrolo[2,3-d]pyrimidin-4-yl)-1H-pyrazol-1-yl]azetidin-1-yl}piperidin-1-yl)carbonyl]-2′-fluorobiphenyl-3-carbonitrile] belongs 8.1. To `N#CCC1(n2cc(-c3ncnc4[nH]ccc34)cn2)CN(C2CCN(C(=O)c3ccc(-c4ccc(C#N)cc4)cc3)CC2)C1` [Example 126, 4′-[(4-{3-(cyanomethyl)-3-[4-(7H-pyrrolo[2,3-d]pyrimidin-4-yl)-1H-pyrazol-1-yl]azetidin-1-yl}piperidin-1-yl)carbonyl]biphenyl-4-carbonitrile] belongs 6.3; to `N#CCC1(n2cc(-c3ncnc4[nH]ccc34)cn2)CN(C2CCN(C(=O)c3ccc(-c4ccc(F)c(F)c4)c(F)c3)CC2)C1` [Example 127, (3-[4-(7H-pyrrolo[2,3-d]pyrimidin-4-yl)-1H-pyrazol-1-yl]-1-{1-[(2,3′,4′-trifluorobiphenyl-4-yl)carbonyl]piperidin-4-yl}azetidin-3-yl) acetonitrile], 4.3. To `N#CCC1(n2cc(-c3ncnc4[nH]ccc34)cn2)CN(C2CCN(C(=O)c3ccc(-c4cc(F)cc(C#N)c4)c(F)c3)CC2)C1` [Example 128, 4′-[(4-{3-(cyanomethyl)-3-[4-(7H-pyrrolo[2,3-d]pyrimidin-4-yl)-1H-pyrazol-1-yl]azetidin-1-yl}piperidin-1-yl)carbonyl]-2′,5-difluorobiphenyl-3-carbonitrile] belongs 3.5; to `N#CCC1(n2cc(-c3ncnc4[nH]ccc34)cn2)CN(C2CCN(C(=O)c3ccc(-c4cccc5ncccc45)c(F)c3)CC2)C1` [Example 129, {1-[1-(3-fluoro-4-quinolin-5-ylbenzoyl)piperidin-4-yl]-3-[4-(7H-pyrrolo[2,3-d]pyrimidin-4-yl)-1H-pyrazol-1-yl]azetidin-3-yl} acetonitrile], 7.9; to `N#CCC1(n2cc(-c3ncnc4[nH]ccc34)cn2)CN(C2CCN(C(=O)c3ccc(-c4cccc5cnccc45)c(F)c3)CC2)C1` [Example 130, {1-[1-(3-fluoro-4-isoquinolin-5-ylbenzoyl)piperidin-4-yl]-3-[4-(7H-pyrrolo[2,3-d]pyrimidin-4-yl)-1H-pyrazol-1-yl]azetidin-3-yl}acetonitrile], 7.1.

For the compound `N#CCC1(n2cc(-c3ncnc4[nH]ccc34)cn2)CN(C2CCN(C(=O)c3ccc(-c4cccc5ccncc45)c(F)c3)CC2)C1` [Example 131, {1-[1-(3-fluoro-4-isoquinolin-8-ylbenzoyl)piperidin-4-yl]-3-[4-(7H-pyrrolo[2,3-d]pyrimidin-4-yl)-1H-pyrazol-1-yl]azetidin-3-yl} acetonitrile], the “IC50 Ratio JAK2/JAK1” value is recorded as 8.1. As for `N#CCC1(n2cc(-c3ncnc4[nH]ccc34)cn2)CN(C2CCN(C(=O)c3ccc(-c4ccc5ccncc5c4)c(F)c3)CC2)C1` [Example 133, {1-[1-(3-fluoro-4-isoquinolin-7-ylbenzoyl)piperidin-4-yl]-3-[4-(7H-pyrrolo[2,3-d]pyrimidin-4-yl)-1H-pyrazol-1-yl]azetidin-3-yl} acetonitrile], the figure is 7.9; as for `N#CCC1(n2cc(-c3ncnc4[nH]ccc34)cn2)CN(C2CCN(C(=O)c3ccc(-c4ccc5cccnc5c4)c(F)c3)CC2)C1` [Example 134, {1-[1-(3-fluoro-4-quinolin-7-ylbenzoyl)piperidin-4-yl]-3-[4-(7H-pyrrolo[2,3-d]pyrimidin-4-yl)-1H-pyrazol-1-yl]azetidin-3-yl} acetonitrile], 6.7. To `N#CCC1(n2cc(-c3ncnc4[nH]ccc34)cn2)CN(C2CCN(C(=O)c3ccc(-c4ccc5nccn5c4)c(F)c3)CC2)C1` [Example 135, {1-[1-(3-fluoro-4-imidazo[1,2-a]pyridin-6-ylbenzoyl)piperidin-4-yl]-3-[4-(7H-pyrrolo[2,3-d]pyrimidin-4-yl)-1H-pyrazol-1-yl]azetidin-3-yl} acetonitrile] belongs 7.1; to `N#CCC1(n2cc(-c3ncnc4[nH]ccc34)cn2)CN(C2CCN(C(=O)c3ccc(-c4nc5ccccc5o4)cc3)CC2)C1` [Example 136, {1-{1-[4-(1,3-benzoxazol-2-yl)benzoyl]piperidin-4-yl}-3-[4-(7H-pyrrolo[2,3-d]pyrimidin-4-yl)-1H-pyrazol-1-yl]azetidin-3-yl}acetonitrile], 5.6. As for `N#CCC1(n2cc(-c3ncnc4[nH]ccc34)cn2)CN(C2CCN(C(=O)c3ccc(-c4nc5ccccc5o4)c(F)c3)CC2)C1` [Example 137, {1-{1-[4-(1,3-benzoxazol-2-yl)-3-fluorobenzoyl]piperidin-4-yl}-3-[4-(7H-pyrrolo[2,3-d]pyrimidin-4-yl)-1H-pyrazol-1-yl]azetidin-3-yl} acetonitrile], the figure is 6.0; as for `N#CCC1(n2cc(-c3ncnc4[nH]ccc34)cn2)CN(C2CC3CCC(C2)N3C(=O)c2ccc(F)c(F)c2)C1` (stereo not drawn) [Example 139, {1-[8-(3,4-difluorobenzoyl)-8-azabicyclo[3.2.1]oct-3-yl]-3-[4-(7H-pyrrolo[2,3-d]pyrimidin-4-yl)-1H-pyrazol-1-yl]azetidin-3-yl}acetonitrile], 4.4. `N#CCC1(n2cc(-c3ncnc4[nH]ccc34)cn2)CN(C2CC3CCC(C2)N3C(=O)c2ccc(C#N)c(F)c2)C1` (stereo not drawn) [Example 140, 4-[(3-{3-(cyanomethyl)-3-[4-(7H-pyrrolo[2,3-d]pyrimidin-4-yl)-1H-pyrazol-1-yl]azetidin-1-yl}-8-azabicyclo[3.2.1]oct-8-yl)carbonyl]-2-fluorobenzonitrile]: the “IC50 Ratio JAK2/JAK1” value amounted to 5.4. With `N#CCC1(n2cc(-c3ncnc4[nH]ccc34)cn2)CN(C2CC3CCC(C2)N3C(=O)c2ccc(Cl)c(F)c2)C1` (stereo not drawn) [Example 141, {1-[8-(4-chloro-3-fluorobenzoyl)-8-azabicyclo[3.2.1]oct-3-yl]-3-[4-(7H-pyrrolo[2,3-d]pyrimidin-4-yl)-1H-pyrazol-1-yl]azetidin-3-yl}acetonitrile], the “IC50 Ratio JAK2/JAK1” value is 6.2. As for `N#CCC1(n2cc(-c3ncnc4[nH]ccc34)cn2)CN(C2CC3CCC(C2)N3C(=O)c2ccnc(C(F)(F)F)c2F)C1` (stereo not drawn) [Example 142, {1-{8-[3-fluoro-2-(trifluoromethyl)isonicotinoyl]-8-azabicyclo[3.2.1]oct-3-yl}-3-[4-(7H-pyrrolo[2,3-d]pyrimidin-4-yl)-1H-pyrazol-1-yl]azetidin-3-yl}acetonitrile], the figure is 7.4; as for `N#CCC1(n2cc(-c3ncnc4[nH]ccc34)cn2)CN(C2CC3CCC(C2)N3C(=O)c2ccc(C(F)(F)F)nc2)C1` (stereo not drawn) [Example 143, [3-[4-(7H-pyrrolo[2,3-d]pyrimidin-4-yl)-1H-pyrazol-1-yl]-1-(8-{[6-(trifluoromethyl)pyridin-3-yl]carbonyl}-8-azabicyclo[3.2.1]oct-3-yl)azetidin-3-yl]acetonitrile], 3.5. For `CC1CC(N2CC(CC#N)(n3cc(-c4ncnc5[nH]ccc45)cn3)C2)CCN1C(=O)C1CCC(F)(F)CC1` (stereo not drawn) [Example 151, {1-{1-[(4,4-difluorocyclohexyl)carbonyl]-2-methylpiperidin-4-yl}-3-[4-(7H-pyrrolo[2,3-d]pyrimidin-4-yl)-1H-pyrazol-1-yl]azetidin-3-yl}acetonitrile], the “IC50 Ratio JAK2/JAK1” value is recorded as 5.8. Turning to `CC1(N2CC(CC#N)(n3cc(-c4ncnc5[nH]ccc45)cn3)C2)CCN(C(=O)c2cccc(F)c2)CC1` [Example 152, {1-[1-(3-Fluorobenzoyl)-4-methylpiperidin-4-yl]-3-[4-(7H-pyrrolo[2,3-d]pyrimidin-4-yl)-1H-pyrazol-1-yl]azetidin-3-yl}acetonitrile], the “IC50 Ratio JAK2/JAK1” value was determined as 4.0.
